These results are taken from publication PMC10313671, “Accelerating the prediction and discovery of peptide hydrogels with human-in-the-loop” (Nature Communications, 2023).

Where a SMILES comes first, the peptide text is derived from it.

The nature of the first data set: Peptide hydrogel formation, vial-inverting method. The data set is classed as physicochemical. Set-up: key to EXP / GELATION: 0: no hydrogel; 1: hydrogel. The settings on record: 30 mM peptide in ultrapure water; pH adjusted to 6.5-8.5 with 1 N NaOH, ultrasonication, standing 48 h; vial-inverting method; concentration raised 30/60/90/120 mM until gelation. Put shortly: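 Gelation judged by vial inversion, a non-flowing self-supporting sample counting as hydrogel, after 48 h standing. Peptide in water at 30 mM first, escalating to 60, 90 and 120 mM if no gel; pH set to 6.5–8.5 by stepwise 1 N NaOH, each step sonicated briefly.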
As to `CC(C)C[C@H](NC(=O)[C@H](CC(C)C)NC(=O)[C@@H](N)CC(C)C)C(=O)N[C@@H](Cc1ccccc1)C(=O)O` [LLLF] (H-LLLF-OH), the State result is “gel”.
Consider `CC(C)C[C@H](N)C(=O)N[C@H](C(=O)N[C@@H](Cc1ccccc1)C(=O)N[C@@H](Cc1ccccc1)C(=O)O)C(C)C` [LVFF], for which the State result is recorded as “gel”.
Same read-out and setting: with `CC(C)[C@H](N)C(=O)N[C@@H](Cc1ccccc1)C(=O)N[C@H](C(=O)N[C@@H](Cc1ccccc1)C(=O)O)C(C)C` [VFVF] (H-VFVF-OH) the entry was “gel”; with `CC(C)C[C@H](NC(=O)[C@H](CC(C)C)NC(=O)[C@H](CC(C)C)NC(=O)[C@@H](N)CC(C)C)C(=O)O` [LLLL] (H-LLLL-OH), “gel”; with `CC(C)C[C@H](NC(=O)[C@H](CC(C)C)NC(=O)[C@@H](N)CC(C)C)C(=O)N[C@@H](Cc1ccc(O)cc1)C(=O)O` [LLLY] (H-LLLY-OH), “gel”.
Same read-out and setting: with `CC[C@H](C)[C@H](N)C(=O)N[C@H](C(=O)N[C@H](C(=O)N[C@H](C(=O)O)[C@@H](C)CC)[C@@H](C)CC)[C@@H](C)CC` [IIII] (H-IIII-OH) the entry was “gel”.

The data set is the same for the next values; noted with them: 60 mM peptide in ultrapure water; pH 6.5-8.5 (1 N NaOH), ultrasonication, standing 48 h; vial-inverting method; no gel at 30 mM.
`O=C(O)[C@H](Cc1ccc(O)cc1)NC(=O)[C@H](Cc1ccc(O)cc1)NC(=O)[C@H](Cc1c[nH]c2ccccc12)NC(=O)[C@@H]1CCCN1` [PWYY] (H-PWYY-OH): the State result is given as “gel”.
Take `CC(C)C[C@H](NC(=O)[C@@H](N)CO)C(=O)N[C@H](C(=O)N[C@H](C(=O)O)C(C)C)C(C)C` [SLVV] (H-SLVV-OH): the State result is given as “gel”.
Same read-out and setting: under `CC[C@H](C)[C@H](NC(=O)[C@@H](NC(=O)[C@@H](N)CC(N)=O)[C@@H](C)O)C(=O)N[C@@H](Cc1ccccc1)C(=O)O` [NTIF] (H-NTIF-OH) stands “gel”.
For `CC[C@H](C)[C@H](N)C(=O)N[C@H](C(=O)N[C@H](C(=O)N[C@@H](Cc1ccc(O)cc1)C(=O)O)[C@@H](C)CC)C(C)C` [IVIY] (H-IVIY-OH), the State entry was “gel”.
Same read-out and setting: with `CC[C@H](C)[C@H](N)C(=O)N[C@@H](CCC(N)=O)C(=O)N[C@H](C(=O)N[C@H](C(=O)O)[C@@H](C)CC)[C@@H](C)CC` [IQII] (H-IQII-OH) the entry was “gel”.

Still in this data set, the particulars now being: concentration at which the state was recorded: lowest of 30, 60, 90, 120 mM that gave a gel; 120 mM for non-gelating peptides.
For `CC(C)C[C@H](NC(=O)[C@H](CC(C)C)NC(=O)[C@@H](N)CC(C)C)C(=O)N[C@@H](Cc1ccccc1)C(=O)O` [LLLF] (H-LLLF-OH), the “Concentration” value was 30000 µM.
Turning to `CC(C)C[C@H](N)C(=O)N[C@H](C(=O)N[C@@H](Cc1ccccc1)C(=O)N[C@@H](Cc1ccccc1)C(=O)O)C(C)C` [LVFF], the “Concentration” value was determined as 30000 µM.
On the same count and under the same terms, with `O=C(O)[C@H](Cc1ccc(O)cc1)NC(=O)[C@H](Cc1ccc(O)cc1)NC(=O)[C@H](Cc1c[nH]c2ccccc12)NC(=O)[C@@H]1CCCN1` [PWYY] (H-PWYY-OH) the figure was 60000 µM; with `CC(C)[C@H](N)C(=O)N[C@@H](Cc1ccccc1)C(=O)N[C@H](C(=O)N[C@@H](Cc1ccccc1)C(=O)O)C(C)C` [VFVF] (H-VFVF-OH), 30000 µM; with `CC(C)C[C@H](NC(=O)[C@@H](N)CO)C(=O)N[C@H](C(=O)N[C@H](C(=O)O)C(C)C)C(C)C` [SLVV] (H-SLVV-OH), 60000 µM.
Still for that read-out and setting: with `CC[C@H](C)[C@H](NC(=O)[C@@H](NC(=O)[C@@H](N)CC(N)=O)[C@@H](C)O)C(=O)N[C@@H](Cc1ccccc1)C(=O)O` [NTIF] (H-NTIF-OH) the figure was 60000 µM; with `CC[C@H](C)[C@H](N)C(=O)N[C@H](C(=O)N[C@H](C(=O)N[C@@H](Cc1ccc(O)cc1)C(=O)O)[C@@H](C)CC)C(C)C` [IVIY] (H-IVIY-OH), 60000 µM.
On the same count and under the same terms, with `CC(C)C[C@H](NC(=O)[C@H](CC(C)C)NC(=O)[C@H](CC(C)C)NC(=O)[C@@H](N)CC(C)C)C(=O)O` [LLLL] (H-LLLL-OH) the figure was 30000 µM.
Consider `CC(C)C[C@H](NC(=O)[C@H](CC(C)C)NC(=O)[C@@H](N)CC(C)C)C(=O)N[C@@H](Cc1ccc(O)cc1)C(=O)O` [LLLY] (H-LLLY-OH), for which the “Concentration” value is 30000 µM.
With `CC[C@H](C)[C@H](N)C(=O)N[C@@H](CCC(N)=O)C(=O)N[C@H](C(=O)N[C@H](C(=O)O)[C@@H](C)CC)[C@@H](C)CC` [IQII] (H-IQII-OH), the “Concentration” value was found to be 60000 µM.
Turning to `CC[C@H](C)[C@H](N)C(=O)N[C@H](C(=O)N[C@H](C(=O)N[C@H](C(=O)O)[C@@H](C)CC)[C@@H](C)CC)[C@@H](C)CC` [IIII] (H-IIII-OH), the “Concentration” value is 30000 µM.

The same data set, now with this note: peptide concentration 30 mM; vial-inverting method; 1 = hydrogel, 0 = no hydrogel.
`CC(C)C[C@H](NC(=O)[C@H](CC(C)C)NC(=O)[C@@H](N)CC(C)C)C(=O)N[C@@H](Cc1ccccc1)C(=O)O` [LLLF] (H-LLLF-OH) showed a GELATION of 1.
Compound `CC(C)C[C@H](N)C(=O)N[C@H](C(=O)N[C@@H](Cc1ccccc1)C(=O)N[C@@H](Cc1ccccc1)C(=O)O)C(C)C` [LVFF] yielded a GELATION of 1.
On the same count and under the same terms, with `CC(C)[C@H](N)C(=O)N[C@@H](Cc1ccccc1)C(=O)N[C@H](C(=O)N[C@@H](Cc1ccccc1)C(=O)O)C(C)C` [VFVF] (H-VFVF-OH) the figure was 1.
`CC(C)C[C@H](NC(=O)[C@H](CC(C)C)NC(=O)[C@H](CC(C)C)NC(=O)[C@@H](N)CC(C)C)C(=O)O` [LLLL] (H-LLLL-OH) displayed a GELATION of 1.
Still for that read-out and setting: with `CC(C)C[C@H](NC(=O)[C@H](CC(C)C)NC(=O)[C@@H](N)CC(C)C)C(=O)N[C@@H](Cc1ccc(O)cc1)C(=O)O` [LLLY] (H-LLLY-OH) the figure was 1.
The compound `CC[C@H](C)[C@H](N)C(=O)N[C@H](C(=O)N[C@H](C(=O)N[C@H](C(=O)O)[C@@H](C)CC)[C@@H](C)CC)[C@@H](C)CC` [IIII] (H-IIII-OH) gave a GELATION of 1.

The same data set, now with this note: peptide concentration 60 mM; vial-inverting method; 1 = hydrogel, 0 = no hydrogel.
In turn, `O=C(O)[C@H](Cc1ccc(O)cc1)NC(=O)[C@H](Cc1ccc(O)cc1)NC(=O)[C@H](Cc1c[nH]c2ccccc12)NC(=O)[C@@H]1CCCN1` [PWYY] (H-PWYY-OH) yielded a GELATION of 1.
On the same count and under the same terms, with `CC(C)C[C@H](NC(=O)[C@@H](N)CO)C(=O)N[C@H](C(=O)N[C@H](C(=O)O)C(C)C)C(C)C` [SLVV] (H-SLVV-OH) the figure was 1.
As to `CC[C@H](C)[C@H](NC(=O)[C@@H](NC(=O)[C@@H](N)CC(N)=O)[C@@H](C)O)C(=O)N[C@@H](Cc1ccccc1)C(=O)O` [NTIF] (H-NTIF-OH), the GELATION is listed as 1.
Still for that read-out and setting: under `CC[C@H](C)[C@H](N)C(=O)N[C@H](C(=O)N[C@H](C(=O)N[C@@H](Cc1ccc(O)cc1)C(=O)O)[C@@H](C)CC)C(C)C` [IVIY] (H-IVIY-OH) stands 1; under `CC[C@H](C)[C@H](N)C(=O)N[C@@H](CCC(N)=O)C(=O)N[C@H](C(=O)N[C@H](C(=O)O)[C@@H](C)CC)[C@@H](C)CC` [IQII] (H-IQII-OH), 1.

A short description of another data set: Transmission electron microscope (negative staining) of peptide assemblies. The settings on record: TEM, negative staining with uranyl acetate, 120 kV; line of the table gives 30 mM.
Experimental: We used the negative staining technique to observe the morphologies formed by peptides. A micropipette was used to load 10 μL of sample solution to a carbon-coated copper grid, and we used a piece of filter paper to remove the excess solution. After rinsing the grid with the deionized water, we used uranyl acetate to stain the sample for 1 minute and then rinsed the grid with deionized water again.
Regarding `CC(C)C[C@H](NC(=O)[C@H](CC(C)C)NC(=O)[C@@H](N)CC(C)C)C(=O)N[C@@H](Cc1ccccc1)C(=O)O` [LLLF] (H-LLLF-OH), the Morphology result is on record as “aggregates”.
Still for that read-out and setting: under `CC(C)C[C@H](N)C(=O)N[C@H](C(=O)N[C@@H](Cc1ccccc1)C(=O)N[C@@H](Cc1ccccc1)C(=O)O)C(C)C` [LVFF] stands “sphere”; under `CC(C)[C@H](N)C(=O)N[C@@H](Cc1ccccc1)C(=O)N[C@H](C(=O)N[C@@H](Cc1ccccc1)C(=O)O)C(C)C` [VFVF] (H-VFVF-OH), “sheet”; under `CC(C)C[C@H](NC(=O)[C@H](CC(C)C)NC(=O)[C@H](CC(C)C)NC(=O)[C@@H](N)CC(C)C)C(=O)O` [LLLL] (H-LLLL-OH), “needle”.
Same read-out and setting: under `CC(C)C[C@H](NC(=O)[C@H](CC(C)C)NC(=O)[C@@H](N)CC(C)C)C(=O)N[C@@H](Cc1ccc(O)cc1)C(=O)O` [LLLY] (H-LLLY-OH) stands “hybrid(sphere+fibre)”; under `CC[C@H](C)[C@H](N)C(=O)N[C@H](C(=O)N[C@H](C(=O)N[C@H](C(=O)O)[C@@H](C)CC)[C@@H](C)CC)[C@@H](C)CC` [IIII] (H-IIII-OH), “needle”.

The same data set, now with this note: TEM, negative staining with uranyl acetate, 120 kV; line of the table gives 60 mM.
`O=C(O)[C@H](Cc1ccc(O)cc1)NC(=O)[C@H](Cc1ccc(O)cc1)NC(=O)[C@H](Cc1c[nH]c2ccccc12)NC(=O)[C@@H]1CCCN1` [PWYY] (H-PWYY-OH): the Morphology entry is “aggregates”.
Regarding `CC(C)C[C@H](NC(=O)[C@@H](N)CO)C(=O)N[C@H](C(=O)N[C@H](C(=O)O)C(C)C)C(C)C` [SLVV] (H-SLVV-OH), the Morphology entry is recorded as “fibre”.
Same read-out and setting: with `CC[C@H](C)[C@H](NC(=O)[C@@H](NC(=O)[C@@H](N)CC(N)=O)[C@@H](C)O)C(=O)N[C@@H](Cc1ccccc1)C(=O)O` [NTIF] (H-NTIF-OH) the entry was “fibre”; with `CC[C@H](C)[C@H](N)C(=O)N[C@H](C(=O)N[C@H](C(=O)N[C@@H](Cc1ccc(O)cc1)C(=O)O)[C@@H](C)CC)C(C)C` [IVIY] (H-IVIY-OH), “aggregates”.
As for `CC[C@H](C)[C@H](N)C(=O)N[C@@H](CCC(N)=O)C(=O)N[C@H](C(=O)N[C@H](C(=O)O)[C@@H](C)CC)[C@@H](C)CC` [IQII] (H-IQII-OH), the Morphology entry is reported as “hybrid(sphere+fibre)”.
